How the values were obtained:
[1] = biological target: T1, DCN1 (Homo sapiens (Human), UniProt Q96GG9); details: class symbols H, M, M-L, legend not given; cited from earlier work
[2] = biological target: T1, DCN1; experiment: TR-FRET binding assay (biotin-DCN1 / Ac-UBE2M12-AlexaFluor488); details: mean ± SD (n); read-out: DCN1_TRFRET Mean EC50
Summary of the method: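 Biotinylated DCN1 binding to Ac-UBE2M12-AlexaFluor488 read by TR-FRET; assay cocktail pre-incubated 1 h at room temperature before compounds added from DMSO stocks by pin transfer. IC50 is the mean of three replicates ± SD; compounds tested in triplicate or more.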

T1 sequence (Q96GG9 whole entry): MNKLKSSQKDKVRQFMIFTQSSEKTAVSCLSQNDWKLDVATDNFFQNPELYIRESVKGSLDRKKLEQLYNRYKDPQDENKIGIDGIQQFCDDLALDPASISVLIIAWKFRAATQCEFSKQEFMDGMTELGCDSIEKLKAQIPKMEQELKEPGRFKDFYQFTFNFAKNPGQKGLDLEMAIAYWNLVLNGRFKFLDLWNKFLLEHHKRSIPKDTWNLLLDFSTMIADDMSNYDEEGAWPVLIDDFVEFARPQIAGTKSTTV

Cc1nn(C)c2c1[C@@H](c1ccc(F)c(F)c1)[C@H](NC(=O)c1ccc(Cl)cc1)C(=O)N2 (racemic) [SJ000399589]
Pulse-Chase inh @ 30 uM [1]: M-L

COc1ccc([C@@H]2c3c(C)nn(C)c3NC(=O)[C@H]2NC(=O)c2cccc(C)c2)cc1F (racemic) [SJ000398158]
Pulse-Chase inh @ 30 uM [1]: M-L

CCN1C(=O)[C@@H](NC(=O)c2cccc(C)c2)[C@@H](c2ccc(F)cc2)c2c(CO)nn(-c3ccccc3)c21 [RG-0008880, N-[(4S,5S)-7-ethyl-4-(4-fluorophenyl)-3-(hydroxymethyl)-6-oxo-1-phenyl-1H,4H,5H,6H,7H-pyrazolo[3,4-b]pyridin-5-yl]-3-methylbenzamide]
EC50 [2]: 173 ± 29.7 nM

CCN1C(=O)[C@@H](NC(=O)c2cccc(C(F)(F)F)c2)[C@@H](c2ccc(F)cc2)c2c(CNC(=O)CCCC[C@@H]3SC[C@@H]4NC(=O)N[C@@H]43)nn(-c3ccccc3)c21 [RG-0014155, N-[(4S,5S)-3-({5-[(3aS,4S,6aR)-2-oxo-hexahydro-1H-thieno[3,4-d]imidazol-4-yl]pentanamido}methyl)-7-ethyl-4-(4-fluorophenyl)-6-oxo-1-phenyl-1H,4H,5H,6H,7H-pyrazolo[3,4-b]pyridin-5-yl]-3-(trifluoromethyl)benzamide]
EC50 [2]: 123 ± 22.5 nM
